A short description of experiment [1]: Inhibition of food intake, intraperitoneal injection to fasted mice. Type of experiment: in vivo, C57BL/6 mice. As to the method:
(§1) Animals: All animal procedures were approved by the British Home Office Animals (Scientific Procedures) Act 1986 (Project License number 70/5516).
(§2) Study protocol: C57BL/6 mice (20-35 g) were injected with the peptide under investigation following a 20-hour fast. Wistar rats were injected following a 24-hour fast. […] A pre-weighed quantity of chow was presented immediately after injection.

Experiment [2] can be described thus: Inhibition of food intake, subcutaneous injection to fasted rats. Type of experiment: in vivo, Wistar rats. As to conditions: for Mean cumulative food intake in comparison to saline control / food intake in comparison to control group treated with native oxyntomodulin: over 24 hours. As to the method:
as §1, §2

Square brackets hold non-standard residues; d marks the D form. Ends that are not written are not given here. * marks the point of attachment. Arachidoyl = CCCCCCCCCCCCCCCCCCCC(=O)*; Palmitoyl = CCCCCCCCCCCCCCCC(=O)*; Myristoyl = CCCCCCCCCCCCCC(=O)* Bounds are passed on as bounds.

With “D-His Ala Gln Gly Thr Phe Thr Ser Asp Tyr Ser Lys Tyr Leu Glu Gln Glu Ile Val Lys Tyr Phe Leu Gln Trp Leu Lys Asn Ala Gly Pro Ser Lys Asn Asn Ile Ala ([dH]AQGTFTSDYSKYLEQEIVKYFLQWLKNAGPSKNNIA) [PEPTIDE NO: 136]”, in experiment [1] (5 nmoles/kg, over 24 hours), the “Mean cumulative food intake in comparison to saline control” value (from here on “Mean cumulative food intake”) is “potent and long acting suppression of food intake”; the “food intake in comparison to control group treated with native oxyntomodulin” value (from here on “food intake … with native oxyntomodulin”) was “lower than in the control group treated with native oxyntomodulin”.

With “D-His Ala Gln Gly Thr Phe Thr Ser Asp Tyr Ser Lys Tyr Leu Glu Glu Glu Leu Val Lys Tyr Phe Leu Gln Trp Leu Lys Asn Ala Gly Pro Ser Lys Asn Asn Ile Ala ([dH]AQGTFTSDYSKYLEEELVKYFLQWLKNAGPSKNNIA) [PEPTIDE NO: 100]”, in experiment [2] (20 nmoles/kg), the “Mean cumulative food intake” value is “potent and long acting suppression of food intake”; the “food intake … with native oxyntomodulin” value is recorded as “lower than in the control group treated with native oxyntomodulin”.

“D-His Ala Gln Gly Thr Phe Thr Ser Asp Tyr Ser Lys Tyr Leu glu Glu Glu Leu Val Lys Tyr Phe Ile Gln Trp Leu Met Asn Thr Lys Arg Asn Lys Asn Asn Ile Ala ([dH]AQGTFTSDYSKYLEEELVKYFIQWLMNTKRNKNNIA; not fully specified (residue 15)) [PEPTIDE NO: 108]”: in experiment [1] (100 nmoles/kg, over 24 hours), the “Mean cumulative food intake” value was “potent and long acting suppression of food intake”; the “food intake … with native oxyntomodulin” value is reported as “lower than in the control group treated with native oxyntomodulin”.

As to “D-His Ser Gln Gly Thr Phe Thr Ser Asp Tyr Ser Lys Tyr Leu Asp Ser Arg Arg Ala Gln Asp Phe Val Gln Trp Leu Lys Asn Ala Gly Pro Ser Lys Asn Asn Ile Ala ([dH]SQGTFTSDYSKYLDSRRAQDFVQWLKNAGPSKNNIA) [PEPTIDE NO: 195]”, in experiment [1] (800 nmoles/kg, over 24 hours), the “Mean cumulative food intake” value is “potent and long acting suppression of food intake”; the “food intake … with native oxyntomodulin” value is listed as “lower than in the control group treated with native oxyntomodulin”.

With “D-His Ser Gln Gly Thr Phe Thr Ser Asp Tyr Ser Lys Tyr Leu Glu Gln Glu Ile Val Lys Tyr Phe Ile Gln Trp Leu Lys Asn Ala Gly Pro Ser Lys Asn Asn Ile Ala ([dH]SQGTFTSDYSKYLEQEIVKYFIQWLKNAGPSKNNIA) [PEPTIDE NO: 94]”, in experiment [2] (5 nmoles/kg), the “Mean cumulative food intake” value was “potent and long acting suppression of food intake”; the “food intake … with native oxyntomodulin” value is given as “lower than in the control group treated with native oxyntomodulin”.

As to “D-His Ser Gln Gly Thr Phe Thr Ser Asp Tyr Ser Lys Tyr Leu Glu Gln Glu Leu Val Lys Tyr Phe Ile Gln Trp Leu Lys Asn Ala Gly Pro Ser Lys Asn Asn Ile Ala ([dH]SQGTFTSDYSKYLEQELVKYFIQWLKNAGPSKNNIA) [PEPTIDE NO: 82]”, in experiment [2] (10 nmoles/kg), the “Mean cumulative food intake” value was “potent and long acting suppression of food intake”; the “food intake … with native oxyntomodulin” value was “lower than in the control group treated with native oxyntomodulin”.

In the case of “D-His Ser Gln Gly Thr Phe Thr Ser Asp Tyr Ser Lys Tyr Leu Glu Glu Glu Leu Val Lys Tyr Phe Ile Gln Trp Leu Lys Asn Ala Gly Pro Ser Lys Asn Asn Ile Ala ([dH]SQGTFTSDYSKYLEEELVKYFIQWLKNAGPSKNNIA) [PEPTIDE NO: 58]”, in experiment [2] (10 nmoles/kg), the “Mean cumulative food intake” value was “potent and long acting suppression of food intake”; the “food intake … with native oxyntomodulin” value was “lower than in the control group treated with native oxyntomodulin”.

With “D-His Ser Gln Gly Thr Phe Thr Ser Asp Tyr Ser Lys Tyr Leu Glu Glu Glu Leu Val Lys Tyr Phe Ile Gln Trp Leu Met Asn Thr Lys Arg Asn Lys Asn Asn Ile Ala ([dH]SQGTFTSDYSKYLEEELVKYFIQWLMNTKRNKNNIA) [PEPTIDE NO: 60]”, in experiment [2] (100 nmoles/kg), the “Mean cumulative food intake” value was “potent and long acting suppression of food intake”; the “food intake … with native oxyntomodulin” value was “lower than in the control group treated with native oxyntomodulin”.

Turning to “D-His Ser Gln Gly Thr Phe Thr Ser Asp Tyr Ser Lys Tyr Leu Glu Glu Glu Leu Val Lys Tyr Phe Leu Gln Trp Leu Lys Asn Ala Gly Pro Ser Lys Asn Asn Ile Ala ([dH]SQGTFTSDYSKYLEEELVKYFLQWLKNAGPSKNNIA) [PEPTIDE NO: 52]”, in experiment [2] (10 nmoles/kg), the “Mean cumulative food intake” value was “potent and long acting suppression of food intake”; the “food intake … with native oxyntomodulin” value is listed as “lower than in the control group treated with native oxyntomodulin”.

Consider “D-His Ser Gln Gly Thr Phe Thr Ser Asp Tyr Ser Lys Tyr Leu Glu Glu Glu Leu Val Lys Tyr Phe Leu Gln Trp Leu Lys Asn Ala Gly Pro Ser Lys Asn Asn Ile Ala Glu Ala Lys ([dH]SQGTFTSDYSKYLEEELVKYFLQWLKNAGPSKNNIAEAK) [PEPTIDE NO: 210]”, for which, in experiment [1] (20 nmoles/kg, over 48 hours), the “Mean cumulative food intake” value is “potent and long acting suppression of food intake”; the “food intake … with native oxyntomodulin” value is “lower than in the control group treated with native oxyntomodulin”.

As to “D-His Ser Gln Gly Thr Phe Thr Ser Asp Tyr Ser Lys Tyr Leu Glu Glu Glu Leu Val Lys Tyr Phe Leu Gln Trp Leu Lys Asn Ala Gly Pro Ser Lys Asn Asn Ile Ala Glu Ala Lys-arachidoyl ([dH]SQGTFTSDYSKYLEEELVKYFLQWLKNAGPSKNNIAEAK(Arachidoyl)) [PEPTIDE NO: 214]”, in experiment [1] (400 nmoles/kg, over 48 hours), the “Mean cumulative food intake” value was “potent and long acting suppression of food intake”; the “food intake … with native oxyntomodulin” value is “lower than in the control group treated with native oxyntomodulin”.

As for “D-His Ser Gln Gly Thr Phe Thr Ser Asp Tyr Ser Lys Tyr Leu Glu Glu Glu Leu Val Lys Tyr Phe Leu Gln Trp Leu Lys Asn Ala Gly Pro Ser Lys Asn Asn Ile Ala Glu Ala Lys-myristoyl ([dH]SQGTFTSDYSKYLEEELVKYFLQWLKNAGPSKNNIAEAK(Myristoyl)) [PEPTIDE NO: 211]”, in experiment [1] (200 nmoles/kg, over 48 hours), the “Mean cumulative food intake” value was “potent and long acting suppression of food intake”; the “food intake … with native oxyntomodulin” value is listed as “lower than in the control group treated with native oxyntomodulin”.

As to “D-His Ser Gln Gly Thr Phe Thr Ser Asp Tyr Ser Lys Tyr Leu Glu Glu Glu Leu Val Lys Tyr Phe Leu Gln Trp Leu Lys Asn Ala Gly Pro Ser Lys Asn Asn Ile Ala Glu Ala Lys-palmitoyl ([dH]SQGTFTSDYSKYLEEELVKYFLQWLKNAGPSKNNIAEAK(Palmitoyl)) [PEPTIDE NO: 213]”, in experiment [1] (400 nmoles/kg, over 48 hours), the “Mean cumulative food intake” value was “potent and long acting suppression of food intake”; the “food intake … with native oxyntomodulin” value is “lower than in the control group treated with native oxyntomodulin”.

With “HSQGTFTSDYSKYLEEELVKYFLQWLKNAGPSKNNIA [PEPTIDE NO: 4]”, in experiment [1] (5 nmoles/kg, over 24 hours), the “Mean cumulative food intake” value was “potent and long acting suppression of food intake”; the “food intake … with native oxyntomodulin” value is recorded as “lower than in the control group treated with native oxyntomodulin”.

Take “His Ser Gln Gly Thr Phe Thr Ser Asp Tyr Ser Lys Tyr Leu Glu Glu Glu Ile Val Lys Tyr Phe ILe Gln Trp Leu Lys Asn Ala Gly Pro Ser Lys Asn Asn Ile Ala (HSQGTFTSDYSKYLEEEIVKYFIQWLKNAGPSKNNIA) [PEPTIDE NO: 22]”: in experiment [2] (3 nmoles/kg), the “Mean cumulative food intake” value is “potent and long acting suppression of food intake”; the “food intake … with native oxyntomodulin” value is “lower than in the control group treated with native oxyntomodulin”.

“PEPTIDE NO: 216: analogue of oxyntomodulin with Asn34 replaced by Asp34; sequence shown only in FIG. 1 (HSQGTFTSDYSKYLEEELVKYFLEWLKNAGPSKDNIA)”: in experiment [2] (10 nmoles/kg, 24 hours observed), the “food intake suppression continues for” value was no less than 24 h. For the same substance, in experiment [2] (10 nmoles/kg), the “Mean cumulative food intake” value was “potent and long acting suppression of food intake”; the “food intake … with native oxyntomodulin” value was “lower than in the control group treated with native oxyntomodulin”.

Consider “[dH]ADGWFWSDYSKYLDSRRAQDFVQWLKNAGPSKNNIA [PEPTIDE NO: 199]”, for which, in experiment [2] (500 nmoles/kg), the “Mean cumulative food intake” value is “potent and long acting suppression of food intake”; the “food intake … with native oxyntomodulin” value was “lower than in the control group treated with native oxyntomodulin”.
